The record followed here is patent US7718651B2, “Inhibitors of FtsZ and uses thereof” (priority 2002, dated 2010).

The subject of experiment [1] is panel of Gram positive rods and cocci. Briefly: Microdilution broth MIC against a panel of bacteria. It is filed as cell-based. In general terms: In broth dilution the organism is exposed to a series of concentrations in liquid medium.
The target in experiment [2] is T1, M. tuberculosis FtsZ (Mycobacterium tuberculosis, UniProt P9WN95). Nature of the experiment: biochemical. To be noted: 100 μM compound, Table 6; read-out: M. tuberculosis FtsZ GTP Hydrolysis % Inhibition (100 μM).
T1 sequence (P9WN95 whole entry, looked up): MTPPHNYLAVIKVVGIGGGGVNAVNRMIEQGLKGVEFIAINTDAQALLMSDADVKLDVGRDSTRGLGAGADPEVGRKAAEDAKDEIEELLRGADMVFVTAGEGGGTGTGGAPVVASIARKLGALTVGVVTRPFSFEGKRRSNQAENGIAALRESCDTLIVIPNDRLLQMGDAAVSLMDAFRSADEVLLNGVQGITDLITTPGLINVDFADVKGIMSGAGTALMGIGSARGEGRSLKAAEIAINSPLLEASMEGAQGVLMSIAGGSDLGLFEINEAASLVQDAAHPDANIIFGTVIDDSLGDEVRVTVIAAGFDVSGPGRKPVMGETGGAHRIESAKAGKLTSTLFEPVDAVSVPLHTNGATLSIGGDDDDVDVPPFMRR
Experiment [3] relates to Salmonella typhimurium. Nature of the experiment: Microdilution broth MIC, Salmonella typhimurium. It is filed as cell-based.
Experiment [4] concerns M. tuberculosis H37Rv. Briefly: microbe, parasite or virus in culture. It is filed as cell-based. The note with it: for inhibition of growth at 12.5 µg/mL: Mycobacterium tuberculosis, at 12.5% μg/ml (so in the source), read-out: Primary Screen PI (% inhibition of growth); for activity against M. tuberculosis H37Rv in the primary screen: in words.
Experiment [5] relates to Bacillus subtilis. Nature of the experiment: Microdilution broth MIC, Bacillus subtilis. It is filed as cell-based. To be noted: Bacillus subtilis SRI 1032, Wild type.
Experiment [6] deals with Staphylococcus aureus. Nature of the experiment: Microdilution broth MIC, Staphylococcus aureus. It is filed as cell-based.
Experiment [7] has as its system M. tuberculosis H37Ra. Nature of the experiment: MIC/MBC, colorimetric (alamar blue) microdilution broth assay. It is filed as cell-based. To be noted: for log reduction in cfu/mL: H37Ra.
Experiment [8] has as its system S. epidermidis. Briefly: Microdilution broth MIC, S. epidermidis. It is filed as cell-based. The note with it: Staphylococcus epidermidis; S. epidermidis SRI 1296, Trimethoprim resistant.
The subject of experiment [9] is E. faecium. Briefly: Microdilution broth MIC, E. faecium. It is filed as cell-based. The note with it: Enterococcus faecium; E. faecium SRI 1421, Vancomycin resistant.
In experiment [10] the test system is bovine tubulin. Nature of the experiment: Light scattering assay for tubulin polymerization. It is filed as biochemical.
For experiment [11], the system named is E. faecalis. Nature of the experiment: Microdilution broth MIC, E. faecalis. It is filed as cell-based.
Experiment [12] has as its target T1, M. tuberculosis FtsZ. Nature of the experiment: biochemical. The note with it: read-out: FtsZ polymerization ID50.
In experiment [13] the test system is Escherichia coli. Briefly: Microdilution broth MIC, Escherichia coli. It is filed as cell-based.
The test system of experiment [14] is Mycobacterium bovis (BCG). It is filed as cell-based.
In experiment [15] the test system is M. tuberculosis Erdman. Briefly: Activity in M. tuberculosis-infected mouse bone marrow macrophages. To be noted: for EC90: Mycobacterium tuberculosis, ERDMAN, Bone marrow macrophage, 168 h. It is filed as cell-based. The procedure:
Toxicity was determined by visual inspection.

Experiment [16] concerns Enterococcus hirae. Nature of the experiment: Microdilution broth MIC, Enterococcus hirae. It is filed as cell-based. The note with it: Enterococcus hirae SRI 76, Wild type.
Experiment [17] has as its system Vero cells. Briefly: Cytotoxicity in Vero cells (MTS assay). It is filed as cell-based. To be noted: Chlorocebus sabaeus.
In experiment [18] the test system is M. tuberculosis H37Rv. Briefly: MIC99 determination, BACTEC 460 radiometric system. It is filed as cell-based. To be noted: Mycobacterium tuberculosis.
Setting [19] is: 72 h, Vero cells, 72 h exposure, Table 3, read-out: IC50.
[20] abbreviates: M. tuberculosis H37Rv, read-out: MIC99.

Each structure is given as a SMILES string. Values after ≈ are worked out from the molar mass of the structure shown. Values joined by “and” are separate entries in the source; they are usually repeats but may differ in a detail not shown here. Identical values can stand only once. “Also recorded” adds a separate entry of the source. Like-named read-outs stand apart in the source and are kept apart here.

Take `CCOC(=O)Nc1cc(NC(C)CCCN(CC)CC)c2nc(-c3ccccc3)c(-c3ccccc3)nc2n1` (centres unmarked) [SRI-3072, [8-(4-Diethylamino-1-methyl-butylamino)-2,3-diphenyl-pyrido[2,3-b]pyrazin-6-yl]-carbamic acid ethyl ester]: the MIC was 32 to 64 µg/mL (≈ 60.8 to 122 µM) in [1] (Bacillus subtilis, read-out: MICs against expanded panel of Gram positive rods and cocci); 64 µg/mL (≈ 122 µM) in experiment [3] (Salmonella enterica, TYPHIMURIUM); 16 µg/mL (≈ 30.4 µM) in experiment [5]; 32 µg/mL (≈ 60.8 µM) in [6] (S. aureus SRI 1186, Wild type); 64 µg/mL (≈ 122 µM) in experiment [6] (S. aureus SRI 1279, Methicillin resistant); 64 µg/mL (≈ 122 µM) in experiment [6] (S. aureus SRI 1343, Multi-drug resistant). Further, the MIC in [6] (Staphylocococcus aureus SRI 1323, Wild type) is 32 µg/mL (≈ 60.8 µM); in [6] (strain not named), 32 µg/mL (≈ 60.8 µM); in experiment [7] (Mycobacterium tuberculosis, H37RA, M. tuberculosis H37Ra, FIG. 2 legend), 250 µg/mL (≈ 475 µM); in experiment [7] (Mycobacterium tuberculosis, H37RA, M. tuberculosis H37Ra, read-out: MIC), 0.25 µg/mL and 0.47 µM; in experiment [8], 32 µg/mL (≈ 60.8 µM); in [9], 32 µg/mL (≈ 60.8 µM). Besides, the MIC in [11] (E. faecalis SRl 1295, Wild type) was 64 µg/mL (≈ 122 µM); in experiment [11] (Enterococcus faecalis, E. faecalis SM 1414, Vancomycin resistant, read-out: MIC), 64 µg/mL (≈ 122 µM); in [13] (Escherichia coli SRI 1218, Wild type) it was above 64 µg/mL; in experiment [16], 32 µg/mL (≈ 60.8 µM); in experiment [18] (H37RV, MIC referred to for dosing of the macrophage assay, strain not stated, read-out: MIC), 0.2 µg/mL (≈ 0.38 µM); in experiment [18] (wildtype (H37Rv), Table 5, read-out: MIC, WT), 0.2 µg/mL (≈ 0.38 µM). Also, in experiment [1] (in words), the “activity against several Gram-positive bacteria, including drug resistant strains” value is given as “moderate activity”. Also, the inhibition (in general, the drop in the measured response relative to a control, in per cent) at 100 µM in experiment [2] was determined as 20%. Besides, in experiment [3] (in words), the “activity against S. typhimurium deep rough (rfa) mutant” value was “active”. Moreover, the inhibition of growth (commonly the drop in the measured response relative to a control, in per cent) at 12.5 µg/mL in [4] (M. tuberculosis H37Rv) is 100%. Besides, the “activity against M. tuberculosis H37Rv in the primary screen” value in experiment [4] is “demonstrated activity”. The “log reduction in cfu/mL” value was 0.98±0.11 in [7] (0.95 μM drug, six days); 1.7±0.06 in experiment [7] (1.9 μM drug, six days); 2.0±0.12 in experiment [7] (3.8 μM drug, six days). For the same molecule, the MBC (commonly the lowest tested concentration that kills the bacteria rather than only halting them) in experiment [7] (Mycobacterium tuberculosis, H37RA, 144 h, M. tuberculosis H37Ra, six days) is 1 µg/mL to 2 µg/mL and 1.9 µM to 3.8 µM. Moreover, the “inhibition of tubulin polymerization” value in experiment [10] (in words, 100 μM) was “no inhibition of tubulin was seen; also recorded: no effect”. For the same molecule, in [10] (tubulin 20 μM, 1 mM GTP, Table 6), the “Bovine Brain Tubulin Polymerization ID50” value is “no inhibition (100 μM)”. Further, the IC50 worked out at 52 ± 12 µM in experiment [12]; 6.3 µg/mL (≈ 12 µM) in experiment [17] (setting [19]); 6.3 µg/mL (≈ 12 µM) in [17] (Vero cells, read-out: IC50). Also, the “activity against E. coli” value in experiment [13] (in words) is “not active”. Also, the “cell length / morphology” value in experiment [14] is “much longer and branched”. In addition, in experiment [14] (BCG cultured cells), the “recovery after washing to remove drug” value is reported as “do not recover”. For the same molecule, the EC90 (usually the point of the concentration-response curve where the effect stands at 90%) in [15] (after seven days, read-out: EC90) was 0.12 µg/mL; in experiment [15] (after seven days, read-out: EC90 (90% reduction in mycobacterial growth)), 230 nM. In addition, the EC99 (as a rule, the point of the concentration-response curve where the effect stands at 99%) in experiment [15] (after seven days) was found to be 1.42 µg/mL. In addition, the “EC99 (99% reduction in mycobacterial growth)” value in experiment [15] (after seven days) worked out at 2.7 µM. In addition, the “growth of M. tuberculosis in infected mouse bone marrow macrophages” value in experiment [15] (in words) is listed as “inhibit the growth”. Also, the MIC99 – broadly, an inhibitory concentration at the 99% level, which refers to growth in some studies and to a panel of isolates in others – was 0.15 µg/mL in experiment [18] (M. tuberculosis H37Rv, Table 3, read-out: Screen 2 MIC99); 0.15 µg/mL and 0.28 µM in [18] (setting [20]).
With `CCOC(=O)Nc1cc2c(c(N)n1)N=C(c1ccccc1)CCN2` [SRI-7614, (1-Amino-8-phenyl-6,7-dihydro-5H-2,5,9-triaza-benzocyclohepten-3-yl)-carbamic acid ethyl ester], in experiment [2], the inhibition at 100 µM is 25%. The inhibition of growth at 12.5 µg/mL in experiment [4] (M. tuberculosis H37Rv) is 100%. Also, in experiment [4], the “activity against M. tuberculosis H37Rv in the primary screen” value was “demonstrated activity”. The IC50 is 4 µM in experiment [10] (read-out: tubulin polymerization ID50); 60 µM in [12]; above 200 µg/mL in experiment [17] (setting [19]); above 200 µg/mL in experiment [17] (Vero cells, read-out: IC50). Moreover, the MIC99 in experiment [18] (H37RV) stood at 6.25 µg/mL; in [18] (H37RV, read-out: Screen 2 MIC99) it was 6.25 µg/mL; in experiment [18] (setting [20]) it was 19 µM.
In the case of `CC[C@@H](CO)NCCN[C@@H](CC)CO` [Ethambutol, ethambutol, reference compound], the MIC in [7] (Mycobacterium tuberculosis, H37RA, M. tuberculosis H37Ra, positive control, read-out: MIC) was 2 µg/mL (≈ 9.79 µM).
As for `CCOC(=O)Nc1cc(NC(C)CCCN(CC)CC)c2ncc(-c3ccc(Cl)c(Cl)c3)nc2n1.Cl.Cl` (centres unmarked) [Compound A7], the “% Inh” value in experiment [4] (M. tuberculosis H37Rv, screen concentration 12.5 g/ml [sic], Table 8) is reported as 99%. The molecule also had an IC50 in [17] of 1.89 µg/mL. The MIC in experiment [18] (M. tuberculosis H37Rv, Table 8, read-out: MIC) worked out at 3.13 µg/mL.
